The conditions of series [1]: 101 kPa, Liquid; for viscosity: Capillary tube (Ostwald / Ubbelohde) method; for mass density: Pycnometric method.
Series [2] can be described thus: xn = mol fraction of the nth substance listed. The conditions noted are these: 101 kPa, Liquid, x2 = 0; for viscosity: Capillary tube (Ostwald / Ubbelohde) method; for mass density: Pycnometric method.

SMILES strings stand for the structures. ± gives the expanded uncertainty stated by the source.

The term viscosity denotes the resistance of a fluid to flow. Usually mass density stands for mass per unit of volume. As to `OCc1ccccc1` [benzenemethanol], the viscosity in series [1] (303.15 K) turned out to be 4.689 ± 0.059 mPa·s; in series [1] (308.15 K) it was 4.058 ± 0.051 mPa·s; in series [1] (313.15 K), 3.531 ± 0.044 mPa·s; in series [1] (318.15 K), 3.103 ± 0.039 mPa·s; in series [1] (323.15 K), 2.747 ± 0.035 mPa·s. The mass density in series [1] (303.15 K) was 1037.6 ± 0.9 kg/m3; in series [1] (308.15 K), 1033.8 ± 0.9 kg/m3; in series [1] (313.15 K), 1030.1 ± 0.9 kg/m3; in series [1] (318.15 K), 1026.3 ± 0.9 kg/m3; in series [1] (323.15 K), 1022.5 ± 0.9 kg/m3.
With `CCC(C)=O` [butanone], the viscosity is 0.362 ± 0.005 mPa·s in series [1] (303.15 K); 0.345 ± 0.005 mPa·s in series [1] (308.15 K); 0.33 ± 0.004 mPa·s in series [1] (313.15 K); 0.316 ± 0.004 mPa·s in series [1] (318.15 K); 0.303 ± 0.004 mPa·s in series [1] (323.15 K). Also, the mass density in series [1] (303.15 K) is 794 ± 0.9 kg/m3; in series [1] (308.15 K), 788.8 ± 0.9 kg/m3; in series [1] (313.15 K), 783.5 ± 0.9 kg/m3; in series [1] (318.15 K), 778.3 ± 0.9 kg/m3; in series [1] (323.15 K), 773 ± 0.9 kg/m3.
For `CCC(C)=O` [butanone] + OCc1ccccc1, the viscosity is recorded as 0.362 ± 0.005 mPa·s in series [2] (303.15 K); 0.345 ± 0.005 mPa·s in series [2] (308.15 K); 0.33 ± 0.004 mPa·s in series [2] (313.15 K); 0.316 ± 0.004 mPa·s in series [2] (318.15 K); 0.303 ± 0.004 mPa·s in series [2] (323.15 K). Besides, the mass density is reported as 794 ± 0.9 kg/m3 in series [2] (303.15 K); 788.8 ± 0.9 kg/m3 in series [2] (308.15 K); 783.5 ± 0.9 kg/m3 in series [2] (313.15 K); 778.3 ± 0.9 kg/m3 in series [2] (318.15 K); 773 ± 0.9 kg/m3 in series [2] (323.15 K).

(Values after the NIST ThermoML archive (doi:10.1021/je200150r).)
